Read-outs that look alike come from different tables or passages of the source.
How the values were obtained:
CBG99 luciferase = CBG99 luciferase (Pyrophorus plagiophthalamus, UniProt Q7M4K1); assay: Luciferase counterscreen (false-positive counterscreen); format: biochemical, click beetle; settings: weighted mean ± SD of two technical replicates, read-out: IC50 value (μM) Counterscreen
Protocol: Hits identified in our primary assay screen were assessed for their potential to interfere with the cbg99 luciferase reporter. For this counterscreen, the master mix containing all the components required for translation (as described above) was incubated for 210 min at 32°C, resulting in the in vitro translation of cbg99 luciferase. The produced luciferase was then incubated with test compounds for 5 min prior to the addition of luciferase reaction buffer. […] Hits from the primary screen were assessed as luciferase inhibitors in 8-point dose-dependent assays ranging from 30 μM to 13.7 nM (1:3 dilutions). Levels of luciferase inhibition were determined relative to the positive control.

[1] = target: human translation (HEK 293F lysate); assay: Human in vitro translation (HsIVT) assay, HEK 293F lysate, luciferase reporter; format: biochemical; settings: weighted mean ± SD of two technical replicates, read-out: IC50 value (μM) HsIVT
Source text: (§1) Our P. falciparum in vitro translation (PfIVT) assay is built upon previously established assays ([14], [17]) and is summarized in Fig. 1A. In this assay, successful reconstitution of Plasmodium protein translation is reported via synthesis of a luciferase reporter. For PfIVT, two independent untranslated regions (UTRs), previously shown to promote strong levels of translation ([17]), were introduced upstream and downstream of the luciferase. The 5′ UTR from P. falciparum histidine-rich protein 3 (PfHrp3) ([18]) was introduced upstream of the reporter gene, and the 3′ UTR from P. falciparum histidine-rich protein 2 (PfHrp2) gene ([19]) was introduced downstream. For the reporter construct to support our complementary human IVT assay (HsIVT), the 5′ UTR was replaced with an internal ribosome entry site (IRES) from encephalomyocarditis virus (EMCV) ([20]) and the 3′ UTR was replaced with a poly(A) tail ([21]). […] Finally, a 30-bp poly(A) tail, present within the vector and downstream of the luciferase gene, was inserted to enhance mRNA stability ([21]).
(§2) Translationally active P. falciparum or human embryonic kidney (HEK) 293F lysates were supplemented with accessory, helper, amino acid, and energy regeneration solutions (see Materials and Methods for details). In vitro translation reactions were initiated by the addition of purified mRNA to each reaction well. Using this basic assay format, a number of parameters were assessed and optimized, namely, assay temperature, time, mRNA concentration, and reaction volume (summarized in Fig. S2 in the supplemental material). In addition, we compared the luminescence signal of the CBG firefly luciferase with CBG99, derived from the click beetle […] ([18]).
FreeStyle human embryonic kidney (HEK) 293F cells (Thermo Fisher Scientific) were grown in 500-mL polycarbonate Erlenmeyer vented flasks (Corning) containing FreeStyle 293 expression medium (Life Technologies) upon reaching a density of approximately 2 × 10^6. Cells were then centrifuged at 1,000 × g for 10 min at 4°C, the medium was discarded, and the resulting pellet was washed once in buffer II containing 20 U of human placental RNase inhibitor (Sigma-Aldrich) and cOmplete EDTA-free inhibitor cocktail (Roche) before being centrifuged at 2,800 × g for 10 min. Clarified HEK cell lysate was obtained in the same way as described for P. falciparum lysate.
PfIVT and HsIVT reactions (5 μL final volume) were performed in 384-well plates (Corning) containing 50% lysate from cells (either P. falciparum or HEK 293F), 10% amino acid solution (final concentration of 400 μM for each amino acid in 60 mM KOH; biotechrabbit), 10% energy recovery solution (final assay concentrations of 40 mM HEPES [pH 7.4], 1.5 mM ATP, 0.15 mM GTP, […] creatine phosphate, and 40 U/mL creatine phosphokinase), 10% helper solution (final assay concentrations of 200 μM cystine, 2% polyethylene glycol 3000 [PEG 3000], 1 mM spermidine, 0.5 mM folinic acid, and 15 μM leupeptin), 10% supplemental salt solution (22.5 mM HEPES [pH 7.4], 50 mM potassium acetate, 1 mM magnesium acetate, 1 mM DTT, 1 U/mL human placental RNase inhibitor, 0.1 mM leupeptin), and 10% cbg99 luciferase mRNA (3,000 ng/mL). A master mix solution containing all components was prepared on ice prior to assays, and 5 μL was dispensed into wells using an automated Integra VIAFLO 16-channel 12.5-μL pipette.

[2] = target: P. falciparum translation (P. falciparum lysate); assay: P. falciparum in vitro translation (PfIVT) assay, lysate-based, luciferase reporter; format: biochemical, Plasmodium falciparum; settings: for IC50: 8-point, weighted mean ± SD of two technical replicates, read-out: IC50 value (μM) PfIVT; for PfIVT inhibition at 30 μM (%): single-point screen
Source text: as §1, §2
3D7 parasites were synchronized following two rounds of treatment with D-sorbitol (5%), as previously described ([40]). The hematocrit was reduced from 5% (for standard culture) to 1.5 to 2% and cultures were transferred into HYPERflasks (Corning). Fresh medium was added once or twice daily. […] Harvested red blood cells (infected) were lysed by incubation in 0.1% (wt/vol) saponin on ice for 10 min with gentle agitation. Free parasites were harvested by centrifugation (2,800 × g, 10 min, 4°C) and washed 3 times in wash buffer (WB; 100 mM potassium acetate, 2.5 mM magnesium acetate, 45 mM HEPES [pH 7.4], 250 mM sucrose, 2 mM dithiothreitol, and 15 μM leupeptin) to remove lysed red blood cell debris. The resulting pellet was resuspended in 1 volume of WB supplemented with cOmplete EDTA-free protease inhibitor cocktail (Roche; 1 tablet/20 mL) and human RNase A inhibitor (Sigma; 5 U/mL). Parasite lysis was achieved by nitrogen cavitation using a prechilled 45-mL Parr cell disruption vessel (1,500 lb/in^2, 60 min, 4°C). To clarify the lysate, it was centrifuged (10,000 × g, 15 min, 4°C), and the supernatant was collected, transferred into fresh tubes, and centrifuged (30,000 × g, 15 min, 4°C). As a quality assurance step for each lysate, the RNA content of the resulting supernatant was determined using a NanoDrop spectrophotometer (Shimadzu). Supernatants with RNA levels of >250 ng/μL were aliquoted (100 μL), flash frozen in liquid nitrogen, and stored at −80°C.

Sequence of CBG99 luciferase (Q7M4K1 entry or part of it): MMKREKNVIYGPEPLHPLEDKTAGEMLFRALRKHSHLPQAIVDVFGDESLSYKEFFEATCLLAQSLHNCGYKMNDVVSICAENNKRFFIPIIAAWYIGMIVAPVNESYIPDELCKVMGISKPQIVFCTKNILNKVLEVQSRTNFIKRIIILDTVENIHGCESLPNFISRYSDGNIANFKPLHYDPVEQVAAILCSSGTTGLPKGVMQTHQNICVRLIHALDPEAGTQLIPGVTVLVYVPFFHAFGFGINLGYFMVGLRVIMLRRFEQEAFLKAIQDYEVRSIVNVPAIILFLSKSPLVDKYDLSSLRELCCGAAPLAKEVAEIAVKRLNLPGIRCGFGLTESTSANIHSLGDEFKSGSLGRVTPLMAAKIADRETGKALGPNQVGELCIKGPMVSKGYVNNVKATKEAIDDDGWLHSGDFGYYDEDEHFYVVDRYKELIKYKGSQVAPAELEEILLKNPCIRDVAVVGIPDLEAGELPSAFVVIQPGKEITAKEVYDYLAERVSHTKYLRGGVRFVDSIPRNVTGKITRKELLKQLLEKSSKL

| Structure (SMILES) | IC50 (CBG99 luciferase; Pathogen Box hits) | IC50 ([1]; Pathogen Box hits) | IC50 ([2]; Pathogen Box hits) | PfIVT inhibition at 30 μM (%) ([2]; Pathogen Box) | IC50 (CBG99 luciferase; Pandemic Box hits) | IC50 ([1]; Pandemic Box hits) | IC50 ([2]; Pandemic Box hits) | PfIVT inhibition at 30 μM (%) ([2]; Pandemic Box) | activity against PfIVT at 100 μM ([2]; 100 μM) |
| --- | --- | --- | --- | --- | --- | --- | --- | --- | --- |
| Cc1ccc(C(=O)Nc2ccc(S(=O)(=O)O)c3cc(S(=O)(=O)O)cc(S(=O)(=O)O)c23)cc1NC(=O)c1cccc(NC(=O)Nc2cccc(C(=O)Nc3cc(C(=O)Nc4ccc(S(=O)(=O)O)c5cc(S(=O)(=O)O)cc(S(=O)(=O)O)c45)ccc3C)c2)c1 [MMV637953] | > 30 µM | > 30 µM | 3.1 ± 0.07 µM | 78.7% |  |  |  |  |  |
| COc1cc(C2=NCCN2)ccc1-c1cn(-c2cccc(C3=NCCN3)c2)nn1 [MMV688407] | > 30 µM | 5.2 ± 0.02 µM | 6 ± 0.09 µM | 98.7% |  |  |  |  |  |
| CC(Cc1ccccc1)C(=O)Nc1ccc(Cl)cc1C(=O)O (stereo not shown) [MMV1579781] |  |  |  |  | 0.5 ± 0.08 µM | > 30 µM | 8.1 ± 0.09 µM | 72.4% |  |
| Clc1cccc(-c2nnc(-c3ccccc3)o2)c1 [MMV141011] |  |  |  |  | 10 ± 0.8 µM | > 30 µM | > 30 µM | 51.8% |  |
| Cc1c[nH]c(CCNC(=O)c2cc(-c3ccc(Cl)cc3)cs2)n1 [MMV676350] | > 30 µM | 6.7 ± 0.13 µM | 16 ± 0.8 µM | 65.1% |  |  |  |  |  |
| COc1cc(C2=NCCN2)cc2cc(-c3ccc(C4=NCCN4)cc3)oc12 [MMV688362] | > 30 µM | 5.6 ± 0.04 µM | 2.8 ± 0.08 µM | 93.5% |  |  |  |  |  |
| O=C(Nc1nc(-c2ccccn2)cs1)c1cncn1-c1ccccc1 [MMV676512] | > 30 µM | 22 ± 0.46 µM | > 30 µM | 54.2% |  |  |  |  |  |
| CCC[C@@H]1C[C@@H](C(=O)N[C@@H]([C@H]2O[C@H](SC)[C@H](O)[C@@H](O)[C@H]2O)[C@H](C)Cl)N(C)C1 [clindamycin, reference compound] |  |  |  |  |  |  |  |  | not active |
| N=C(N)Nc1ccc(-c2ccc(-c3ccc(N=C(N)N)c(Cl)c3)o2)cc1Cl [MMV688271] | > 30 µM | 13 ± 0.16 µM | 18 ± 0.9 µM | 65.7% |  |  |  |  |  |
| COc1ccc(C2=NCCN2)cc1-c1cn(-c2cccc(C3=NCCN3)c2)nn1 [MMV688547] | > 30 µM | 2.7 ± 0.02 µM | 1.8 ± 0.07 µM | 96.7% |  |  |  |  |  |
| Cn1cc(NC(=O)c2cc(NC(=O)c3ccc(/C=C/c4cnc5ccccc5c4)cc3)cn2C)cc1C(=O)NCCN1CCOCC1 [MMV1634391] |  |  |  |  | > 30 µM | 1.1 ± 0.01 µM | 17 ± 0.6 µM | 52.4% |  |
| COc1cc(C2=NCCN2)ccc1-n1cc(-c2cccc(C3=NCCN3)c2)nn1 [MMV688474] | > 30 µM | 14 ± 0.07 µM | 16 ± 0.9 µM | 78.4% |  |  |  |  |  |
| O=C(O)c1cc(-c2ccc(Br)cc2)nc2ccc(Cl)cc12 [MMV247764] |  |  |  |  | 3.2 ± 0.06 µM | 23 ± 0.2 µM | 14 ± 0.7 µM | 63.2% |  |
